Experimental data published in PubChem BioAssay AID1963829 (Molecular Pharmacology Branch, DTP, NCI, 2024).

Test system: 935938-334-R-J1-PDC complex spheroid viability
Assay: Anticancer human tumor 935938-334-R-J1-PDC patient-derived small intestine adenocarcinoma cell line growth inhibition [POLQ]
Details: for IC50: curve of first compound; for viability, T/C: stronger effect = lower value
Method in brief: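 Patient-derived tumour cells were co-cultured with HUVEC and mesenchymal stem cells as multicellular spheroids at 37 °C. They were treated with POLQ inhibitors (novobiocin, ART-558, RP6685) alone or combined with other agents. Top concentrations were at or near clinical Cmax (otherwise 10 microM; SN-38 at 1 microM), decreasing in half-log steps.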

[1] = second compound 0.0316 µM, first compound 0.0316 µM
[2] = second compound 0.0316 µM, first compound 0.1 µM
[3] = second compound 0.0316 µM, first compound 0.316 µM
[4] = second compound 0.0316 µM, first compound 1 µM
[5] = second compound 0.0316 µM, first compound 3.16 µM
[6] = second compound 0.0316 µM, first compound 10 µM
[7] = second compound 0.1 µM, first compound 0.0316 µM
[8] = second compound 0.1 µM, first compound 0.1 µM
[9] = second compound 0.1 µM, first compound 0.316 µM
[10] = second compound 0.1 µM, first compound 1 µM
[11] = second compound 0.1 µM, first compound 3.16 µM
[12] = second compound 0.1 µM, first compound 10 µM
[13] = second compound 0.316 µM, first compound 0.0316 µM
[14] = second compound 0.316 µM, first compound 0.1 µM
[15] = second compound 0.316 µM, first compound 0.316 µM
[16] = second compound 0.316 µM, first compound 1 µM
[17] = second compound 0.316 µM, first compound 3.16 µM
[18] = second compound 0.316 µM, first compound 10 µM
[19] = second compound 1 µM, first compound 0.0316 µM
[20] = second compound 1 µM, first compound 0.1 µM
[21] = second compound 1 µM, first compound 0.316 µM
[22] = second compound 1 µM, first compound 1 µM
[23] = second compound 1 µM, first compound 3.16 µM
[24] = second compound 1 µM, first compound 10 µM
[25] = second compound 3.16 µM, first compound 0.0316 µM
[26] = second compound 3.16 µM, first compound 0.1 µM
[27] = second compound 3.16 µM, first compound 0.316 µM
[28] = second compound 3.16 µM, first compound 1 µM
[29] = second compound 3.16 µM, first compound 3.16 µM
[30] = second compound 3.16 µM, first compound 10 µM
[31] = second compound 10 µM, first compound 0.0316 µM
[32] = second compound 10 µM, first compound 0.1 µM
[33] = second compound 10 µM, first compound 0.316 µM
[34] = second compound 10 µM, first compound 1 µM
[35] = second compound 10 µM, first compound 3.16 µM
[36] = second compound 10 µM, first compound 10 µM
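Note: spheroids exposed to drugs for seven days before viability read.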
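Throughout, for viability, T/C: 100% = DMSO vehicle control wells.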

## C=CC(=O)N1CCN(c2nc(=O)n(-c3c(C)ccnc3C(C)C)c3nc(-c4c(O)cccc4F)c(F)cc23)C(C)C1 (stereo unspecified) + COC1C(OC(N)=O)C(O)C(Oc2ccc3c(O)c(NC(=O)c4ccc(O)c(CC=C(C)C)c4)c(=O)oc3c2C)OC1(C)C
Second compound 0.0316 µM
  IC50: > 10 µM
Second compound 0.1 µM
  IC50: > 10 µM
Second compound 0.316 µM
  IC50: > 10 µM
Second compound 1 µM
  IC50: > 10 µM
Second compound 3.16 µM
  IC50: > 10 µM
Second compound 10 µM
  IC50: > 10 µM
[1]
  viability, T/C: 107%
[2]
  viability, T/C: 88.4%
[3]
  viability, T/C: 107%
[4]
  viability, T/C: 82.9%
[5]
  viability, T/C: 131%
[6]
  viability, T/C: 111%
[7]
  viability, T/C: 85.3%
[8]
  viability, T/C: 110%
[9]
  viability, T/C: 90.8%
[10]
  viability, T/C: 99.3%
[11]
  viability, T/C: 104%
[12]
  viability, T/C: 126%
[13]
  viability, T/C: 129%
[14]
  viability, T/C: 87.2%
[15]
  viability, T/C: 103%
[16]
  viability, T/C: 80.7%
[17]
  viability, T/C: 85.5%
[18]
  viability, T/C: 115%
[19]
  viability, T/C: 101%
[20]
  viability, T/C: 86.4%
[21]
  viability, T/C: 101%
[22]
  viability, T/C: 107%
[23]
  viability, T/C: 102%
[24]
  viability, T/C: 113%
[25]
  viability, T/C: 117%
[26]
  viability, T/C: 99.7%
[27]
  viability, T/C: 93.4%
[28]
  viability, T/C: 96.9%
[29]
  viability, T/C: 102%
[30]
  viability, T/C: 111%
[31]
  viability, T/C: 102%
[32]
  viability, T/C: 81.3%
[33]
  viability, T/C: 106%
[34]
  viability, T/C: 94.7%
[35]
  viability, T/C: 103%
[36]
  viability, T/C: 118%

## CC1COCCN1c1cc(C2(O)CC3CCC(C2)O3)c2cnn(-c3ccn[nH]3)c2n1 (stereo unspecified) + COC1C(OC(N)=O)C(O)C(Oc2ccc3c(O)c(NC(=O)c4ccc(O)c(CC=C(C)C)c4)c(=O)oc3c2C)OC1(C)C
Second compound 0.0316 µM
  IC50: 0.244 µM
Second compound 0.1 µM
  IC50: 0.207 µM
Second compound 0.316 µM
  IC50: 0.168 µM
Second compound 1 µM
  IC50: 0.216 µM
Second compound 3.16 µM
  IC50: 0.177 µM
Second compound 10 µM
  IC50: 0.097 µM
[1]
  viability, T/C: 82.5%
[2]
  viability, T/C: 71.2%
[3]
  viability, T/C: 43.8%
[4]
  viability, T/C: 20.1%
[5]
  viability, T/C: 14.7%
[6]
  viability, T/C: 8.68%
[7]
  viability, T/C: 114%
[8]
  viability, T/C: 71.9%
[9]
  viability, T/C: 36.4%
[10]
  viability, T/C: 21.1%
[11]
  viability, T/C: 18.7%
[12]
  viability, T/C: 9.26%
[13]
  viability, T/C: 75.7%
[14]
  viability, T/C: 65.8%
[15]
  viability, T/C: 30.4%
[16]
  viability, T/C: 21.5%
[17]
  viability, T/C: 16.8%
[18]
  viability, T/C: 11.5%
[19]
  viability, T/C: 79.1%
[20]
  viability, T/C: 78.6%
[21]
  viability, T/C: 35.8%
[22]
  viability, T/C: 23.2%
[23]
  viability, T/C: 13.5%
[24]
  viability, T/C: 11.3%
[25]
  viability, T/C: 102%
[26]
  viability, T/C: 63.3%
[27]
  viability, T/C: 36.5%
[28]
  viability, T/C: 20.9%
[29]
  viability, T/C: 15.1%
[30]
  viability, T/C: 10.2%
[31]
  viability, T/C: 88.2%
[32]
  viability, T/C: 48.9%
[33]
  viability, T/C: 27.9%
[34]
  viability, T/C: 16.6%
[35]
  viability, T/C: 15.7%
[36]
  viability, T/C: 8.92%

## CCc1cc2c(N3CCc4c(cc(Cn5ccnc5)cc4-c4cn(C)nc4C(F)(F)F)C3=O)cc(C)nc2c(OC)n1 + COC1C(OC(N)=O)C(O)C(Oc2ccc3c(O)c(NC(=O)c4ccc(O)c(CC=C(C)C)c4)c(=O)oc3c2C)OC1(C)C
Second compound 0.0316 µM
  IC50: > 10 µM
Second compound 0.1 µM
  IC50: > 10 µM
Second compound 0.316 µM
  IC50: > 10 µM
Second compound 1 µM
  IC50: > 10 µM
Second compound 3.16 µM
  IC50: > 10 µM
Second compound 10 µM
  IC50: > 10 µM
[1]
  viability, T/C: 83.6%
[2]
  viability, T/C: 81.1%
[3]
  viability, T/C: 77.7%
[4]
  viability, T/C: 72.9%
[5]
  viability, T/C: 64.6%
[6]
  viability, T/C: 64.8%
[7]
  viability, T/C: 80.8%
[8]
  viability, T/C: 83.1%
[9]
  viability, T/C: 74.1%
[10]
  viability, T/C: 62.8%
[11]
  viability, T/C: 70.4%
[12]
  viability, T/C: 64%
[13]
  viability, T/C: 74.6%
[14]
  viability, T/C: 72.5%
[15]
  viability, T/C: 75.5%
[16]
  viability, T/C: 70.5%
[17]
  viability, T/C: 75.4%
[18]
  viability, T/C: 60%
[19]
  viability, T/C: 64.7%
[20]
  viability, T/C: 72%
[21]
  viability, T/C: 90.6%
[22]
  viability, T/C: 88.9%
[23]
  viability, T/C: 73.9%
[24]
  viability, T/C: 71.3%
[25]
  viability, T/C: 64.4%
[26]
  viability, T/C: 73.6%
[27]
  viability, T/C: 73%
[28]
  viability, T/C: 61.5%
[29]
  viability, T/C: 74.7%
[30]
  viability, T/C: 56.4%
[31]
  viability, T/C: 85.7%
[32]
  viability, T/C: 68.8%
[33]
  viability, T/C: 71.8%
[34]
  viability, T/C: 71.5%
[35]
  viability, T/C: 78.5%
[36]
  viability, T/C: 66.7%
